These results are taken from patent US20250026748A1, “N-(5-SUBSTITUTED-[(1,3,4-THIADIAZOLYL) OR (THIAZOLYL)])(SUBSTITUTED)CARBOXAMIDE COMPOUNDS AND USE THEREOF FOR INHIBITING HUMAN POLYMERASE THETA” (Repare Therapeutics Inc., priority 2021, published 2025).

Test [1] concerns the target PolQ ATPase enzyme (1-894) (Homo sapiens (Human), UniProt O75417). Put plainly: Polθ ATPase enzymatic assay (0.5 nM enzyme concentration), ADP-Glo. The following applies: average IC50; 0.5 nM PolQ ATPase enzyme (1-894). It is filed as biochemical. In outline: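 Enzyme (0.5 nM) pre-incubated 15 min at rt with 10-point inhibitor series in 50 mM Tris pH 7.5, 10% glycerol, 5 mM DTT, 10 mM MgCl2, 0.1 mg/ml BSA; reaction started with 20 nM fork DNA and 100 μM ATP, run 180 min at rt. ADP-Glo luminescence; IC50 from 4-parameter variable-slope fit.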

The target of test [2] is Polθ ATPase enzyme (1-894) (Homo sapiens (Human), UniProt O75417). Put plainly: Polθ ATPase enzymatic assay (3 nM enzyme concentration), ADP-Glo. The format is biochemical. The method, then:
Polθ ATPase enzyme (1-894) at 3 nM is incubated with a 10-point concentration response of inhibitors for 15 min at rt in the following buffer: 50 mM Tris Cl pH 7.5, 10% glycerol, 5 mM DTT, 10 mM MgCl2, 0.1 mg/ml BSA. Following pre-incubation with inhibitors, DNA (Fork C) at 20 nM and ATP at 100 μM are added to start the reaction. Enzymatic reaction proceeds at rt for 60 min. ATP consumption is measured using the ADP-Glo assay from Promega. Luminescence is read on the Envision and IC50 are determined using the variable slope 4-parameters equation.
DNA (Fork C) is made by annealing 3 different oligos containing the following sequence of nucleotides:
Oligos are annealed by heating at 95° C. for 5 min in the following buffer (10 mM Tris-HCl pH7.5, 50 mM NaCl, 1 mM EDTA) and cooled to rt. […]

[3] abbreviates: read-out: IC50 (nM) [PolQ] 3 nM, average IC50, 3 nM PolQ ATPase enzyme (1-894).

Molecules are shown by their SMILES. Like-named read-outs stand apart in the source and are kept apart here. Where only a bound is given, the exact number is not on record here.

Chain of Polθ ATPase enzyme (1-894) (O75417 1-894): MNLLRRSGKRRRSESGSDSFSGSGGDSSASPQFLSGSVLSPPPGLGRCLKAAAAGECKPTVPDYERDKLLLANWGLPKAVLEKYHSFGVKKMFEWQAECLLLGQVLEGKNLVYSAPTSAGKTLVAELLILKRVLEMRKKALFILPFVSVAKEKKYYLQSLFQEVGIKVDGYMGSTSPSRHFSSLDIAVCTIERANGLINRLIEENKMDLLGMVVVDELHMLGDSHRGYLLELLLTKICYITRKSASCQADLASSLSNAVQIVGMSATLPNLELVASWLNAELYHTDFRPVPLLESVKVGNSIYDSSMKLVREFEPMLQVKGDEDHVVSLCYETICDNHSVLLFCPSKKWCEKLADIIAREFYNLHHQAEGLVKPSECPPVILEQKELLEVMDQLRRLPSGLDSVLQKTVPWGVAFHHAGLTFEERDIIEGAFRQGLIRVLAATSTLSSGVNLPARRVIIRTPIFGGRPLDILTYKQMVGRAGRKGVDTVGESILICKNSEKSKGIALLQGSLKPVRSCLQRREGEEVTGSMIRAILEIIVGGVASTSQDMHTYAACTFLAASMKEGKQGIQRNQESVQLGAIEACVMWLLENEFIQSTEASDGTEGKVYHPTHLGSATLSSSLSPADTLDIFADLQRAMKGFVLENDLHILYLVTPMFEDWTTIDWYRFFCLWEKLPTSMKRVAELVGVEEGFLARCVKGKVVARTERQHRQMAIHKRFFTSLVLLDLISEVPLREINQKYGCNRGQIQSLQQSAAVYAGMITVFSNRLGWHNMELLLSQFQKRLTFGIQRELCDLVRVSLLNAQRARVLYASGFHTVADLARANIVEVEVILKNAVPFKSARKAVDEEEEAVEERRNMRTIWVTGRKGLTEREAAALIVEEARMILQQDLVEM
Chain of PolQ ATPase enzyme (1-894) (O75417 1-894): as above

As to `COc1ccc(C#N)cc1-c1cnccc1C(=O)Nc1nnc(C2C[C@H]2c2ccc(C#N)cc2)s1` (mixture of isomers) [Compound 2, N-(5-((1R,2R)-2-(4-cyanophenyl)cyclopropyl)-1,3,4-thiadiazol-2-yl)-3-(5-cyano-2-methoxyphenyl)isonicotinamide], the values for the half-inhibitory concentration (IC50) in test [1] and in test [2] were 2.2 nM and 3.3 nM, respectively.

Consider `COc1ccc(F)cc1-c1cnccc1C(=O)Nc1nnc([C@@H]2C[C@H]2c2ccc(C#N)cc2)s1` [Compound 1, N-(5-((1R,2R)-2-(4-cyanophenyl)cyclopropyl)-1,3,4-thiadiazol-2-yl)-3-(5-fluoro-2-methoxyphenyl)isonicotinamide], for which the half-inhibitory concentration (IC50) in test [1] was 1.1 nM; in test [2] (setting [3]), 5.8 nM.

For the compound `COc1ccc(F)cc1-c1cnccc1C(=O)Nc1nnc([C@@H]2C[C@H]2c2ccn(C)n2)s1` [Compound 3, 3-(5-fluoro-2-methoxyphenyl)-N-(5-((1R,2R)-2-(1-methyl-1H-pyrazol-3-yl)cyclopropyl)-1,3,4-thiadiazol-2-yl)isonicotinamide], the IC50 in test [2] (setting [3]) turned out to be 23 nM.

For `COc1ccc(F)cc1-c1cnccc1C(=O)Nc1nnc([C@@H]2C[C@H]2c2nc3ccccc3n2C)s1` [Compound 4, 3-(5-fluoro-2-methoxyphenyl)-N-(5-((1R,2R)-2-(1-methyl-1H-benzo[d]imidazol-2-yl)cyclopropyl)-1,3,4-thiadiazol-2-yl)isonicotinamide], the IC50 in test [2] (setting [3]) amounted to 92 nM.

For `COc1ccc(C#N)cc1-c1cnccc1C(=O)Nc1nnc(C#CC2CCC2)s1` [Compound 5], the IC50 turned out to be 1.5 nM in test [1] and 2.9 nM in test [2] (setting [3]).

For `COc1ccc(C#N)cc1-c1cnccc1C(=O)Nc1nnc(C#CC2CC23CC3)s1` (stereo not shown) [Compound 6, 3-(5-cyano-2-methoxyphenyl)-N-(5-(spiro[2.2]pentan-1-ylethynyl)-1,3,4-thiadiazol-2-yl)isonicotinamide], the IC50 in test [1] worked out at 0.63 nM; in test [2] (setting [3]), 2 nM.

Turning to `COc1ccc(C#N)cc1-c1cnccc1C(=O)Nc1nnc(C#CC2COC2)s1` [Compound 7, 3-(5-cyano-2-methoxyphenyl)-N-(5-(oxetan-3-ylethynyl)-1,3,4-thiadiazol-2-yl)isonicotinamide], the IC50 in test [2] (setting [3]) is 12 nM.

On to `COc1ccc(F)cc1-c1cnccc1C(=O)Nc1nnc(C#Cc2cnn(CC#N)c2)s1` [Compound 8, N-(5-((1-(cyanomethyl)-1H-pyrazol-4-yl)ethynyl)-1,3,4-thiadiazol-2-yl)-3-(5-fluoro-2-methoxyphenyl)isonicotinamide], for which the IC50 in test [2] (setting [3]) came to 48 nM.

As to `COc1ccc(C#N)cc1-c1cnccc1C(=O)Nc1nnc(C#CC2(N)CC2)s1` [Compound 9], the IC50 in test [2] (setting [3]) turned out to be 33 nM.

In the case of `COc1ccc(F)cc1-c1cnccc1C(=O)Nc1nnc(C#Cc2cnc(C#N)c(OC)c2)s1` [Compound 10], the IC50 in test [2] (setting [3]) was found to be 54 nM.

As for `COc1ccc(F)cc1-c1cnccc1C(=O)Nc1nnc(C#Cc2ccc3nccn3n2)s1` [Compound 11], the concentration for half-maximal inhibition (IC50) in test [2] (setting [3]) stood at 117 nM.

Take `COc1ccc(C#N)cc1-c1cnccc1C(=O)Nc1nnc(C#CC2CC2)s1` [Compound 12, 3-(5-cyano-2-methoxyphenyl)-N-(5-(cyclopropylethynyl)-1,3,4-thiadiazol-2-yl)isonicotinamide]: the figures for the IC50 in test [1] and in test [2] (setting [3]) were 3.5 nM and 2 nM, respectively.

As for `COc1c(F)cccc1-c1cnccc1C(=O)Nc1nnc(C#CC2CC2)s1` [Compound 13], the IC50 in test [1] turned out to be 4.2 nM; in test [2] (setting [3]) it was 6.9 nM.

As to `COc1ccc(F)cc1-c1cnccc1C(=O)Nc1nnc(C#Cc2cnc3cnccn23)s1` [Compound 14], the IC50 in test [2] (setting [3]) stood at 139 nM.

Turning to `COc1ccc(C#N)cc1-c1cn(C)c(=O)cc1C(=O)Nc1nnc(C2C[C@H]2c2ccc(C#N)cc2)s1` (stereo partly shown) [Compound 15], the IC50 in test [2] (setting [3]) turned out to be 15 nM.

Consider `COc1ccc(F)cc1-c1cn(C)c(=O)cc1C(=O)Nc1nnc(C#Cc2cc(C)[nH]n2)s1` [Compound 17], for which the IC50 in test [1] is 3.2 nM; in test [2] (setting [3]) it was 5.4 nM.

Take `COc1ccc(F)cc1-c1cn(C)c(=O)cc1C(=O)Nc1nnc(C#Cc2cnn(C3CCCNC3)c2)s1` (stereo not shown) [Compound 18]: the IC50 in test [2] (setting [3]) was found to be 204 nM.

On to `COc1ccc(F)cc1-c1cn(C)c(=O)cc1C(=O)Nc1nnc(C#Cc2ccn(C)n2)s1` [Compound 19], for which the IC50 in test [2] (setting [3]) is 27 nM.

On to `COc1ccc(C#N)cc1-c1cn(C)c(=O)cc1C(=O)Nc1nnc(C#CC2CC2)s1` [Compound 20], for which the IC50 in test [2] (setting [3]) turned out to be 21 nM.

For the compound `COc1ccc(F)cc1-c1cn(C)c(=O)cc1C(=O)Nc1nnc(C#CC2CC2)s1` [Compound 21], the IC50 in test [2] (setting [3]) is 12 nM.

In the case of `COc1ccc(F)cc1-n1cncc1C(=O)Nc1nnc(C#CC2CC2)s1` [Compound 22], in test [2] (setting [3]), the IC50 came out at 12 nM.

Take `COc1ccc(C#N)cc1-n1cncc1C(=O)Nc1nnc(C#CC2CC2)s1` [Compound 23]: the IC50 in test [2] (setting [3]) came to 134 nM.

On to `COc1ccc(C(F)(F)F)cc1-c1cnccc1C(=O)Nc1nnc(C#CC2CC2)s1` [Compound 24], for which the IC50 is 0.78 nM in test [1] and below 1.5 nM in test [2] (setting [3]).

Turning to `COc1cnc(Cl)cc1-c1cnccc1C(=O)Nc1nnc(C#CC2CC2)s1` [Compound 25], the figures for the IC50 in test [1] and in test [2] (setting [3]) were 1.3 nM and 1.5 nM, respectively.

For `COc1cnc(Cl)cc1-c1cnccc1C(=O)Nc1nnc([C@@H]2C[C@H]2c2ccc(C#N)cc2)s1` [Compound 26, 2′-chloro-N-(5-((1R,2R)-2-(4-cyanophenyl)cyclopropyl)-1,3,4-thiadiazol-2-yl)-5′-methoxy-[3,4′-bipyridine]-4-carboxamide], the IC50 was 0.53 nM in test [1] and 2.6 nM in test [2] (setting [3]).

In turn, `Cc1cnn(-c2cc(-c3cc(C(F)F)ncc3Cl)c(C(=O)Nc3nnc(C#CC4CC4)s3)cn2)c(=O)c1` [Compound 470] came in with an IC50 in test [1] of 0.0492 nM.

In test [1], `COc1cnc(C(F)F)cc1-c1cc(N2CC(C)(C)N(C)CC2=O)ncc1C(=O)Nc1nnc(C#CC2CC2)s1` [Compound 471] had an IC50 of 2.1 nM.

A word on the IC50: it is the concentration needed to halve the response being measured.
